The assay deals with Serine/threonine-protein kinase PLK1 (Homo sapiens) (UniProt P53350). The experiment in a line: PLK1 polo-box domain peptide-binding inhibitors, SAR follow-up, biochemical, fluorescence polarization, purchased analogs, concentration response (AID 1083). The conditions noted are these: Plk1 PBD peptide binding. On the technique in general: In fluorescence polarisation assays a small probe gives low polarisation when free and higher when bound to something large.

Molecules are shown by their SMILES. Where “and” joins values, the source holds several entries; their conditions need not be identical. Identical values can stand only once. Calls of active or inactive are those of the source. The rule behind the calls is not given here. Some results are limits rather than exact numbers.

Sequence of Serine/threonine-protein kinase PLK1 (Homo sapiens) (P53350 whole entry, looked up, the tested form may be a part): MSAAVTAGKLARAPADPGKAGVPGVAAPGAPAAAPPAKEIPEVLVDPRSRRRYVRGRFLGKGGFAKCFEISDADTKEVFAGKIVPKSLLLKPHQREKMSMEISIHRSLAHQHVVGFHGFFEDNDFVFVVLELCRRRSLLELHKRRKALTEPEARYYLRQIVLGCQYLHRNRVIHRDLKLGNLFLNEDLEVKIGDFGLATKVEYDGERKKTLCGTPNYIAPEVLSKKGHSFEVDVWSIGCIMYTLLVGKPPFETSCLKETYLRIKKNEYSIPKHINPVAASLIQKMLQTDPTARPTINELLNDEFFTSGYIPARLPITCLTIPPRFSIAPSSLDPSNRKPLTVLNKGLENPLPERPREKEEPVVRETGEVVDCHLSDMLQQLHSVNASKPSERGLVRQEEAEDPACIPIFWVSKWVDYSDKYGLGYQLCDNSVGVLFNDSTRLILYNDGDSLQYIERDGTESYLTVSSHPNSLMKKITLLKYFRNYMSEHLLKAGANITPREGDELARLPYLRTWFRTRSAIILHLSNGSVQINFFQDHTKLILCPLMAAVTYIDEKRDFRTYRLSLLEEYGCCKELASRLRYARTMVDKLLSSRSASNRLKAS

What is called IC50 is the concentration needed to halve the response being measured. Regarding `COc1ccc(N(CN2C(=O)c3ccccc3C2=O)C(=O)C(F)(F)F)cc1`, the IC50 was > 50 µM (inactive).

As to `CCn1nc(-c2ccc(C(F)(F)F)cc2)nc2c(=O)n(C)c(=O)nc1-2`, the IC50 is 0.552 µM.

As to `CC(=O)N(/N=C1\Sc2ccccc2C1=O)c1ccccc1C`, the IC50 was 37.4 µM.

For `CC(=O)N(/N=C1\Sc2ccccc2C1=O)c1ccccc1Cl`, the IC50 was > 50 µM (inactive).

For `Cn1c(=O)[nH]c2nnc(-c3ccc(Cl)cc3)nc2c1=O`, the IC50 was > 50 µM (inactive).

Regarding `COc1cc(C=C2C(=O)NC(=O)NC2=O)ccc1OCc1c(C)no[n+]1[O-]`, the IC50 was > 50 µM (inactive).

With `CCc1ccc(-c2nc3c(=O)n(C)c(=O)nc-3n(CC)n2)cc1`, the IC50 is 0.786 µM and > 50 µM (inactive).

For `CCOC(=O)c1ccc(N=C(c2ccccc2)c2c(O)n(C)c(=O)n(C)c2=O)cc1`, the IC50 was > 50 µM (inactive).

On to `CCN(CC)CCOC(=O)c1ccc(N=Cc2c(O)n(C)c(=O)[nH]c2=O)cc1`, for which the IC50 was > 50 µM (inactive).

`CCn1nc(-c2ccc([N+](=O)[O-])cc2)nc2c(=O)n(C)c(=O)nc1-2`: the IC50 was 0.571 µM.

With `O=c1[nH]c(=O)c2nc(-c3ccc(Cl)cc3)cnc2[nH]1`, the IC50 was > 50 µM (inactive).

Consider `CC(=O)N(CN1C(=O)c2ccccc2C1=O)c1ccc(F)cc1`, for which the IC50 is > 50 µM (inactive).

For `O=C1NC(=O)C(=Cc2cc(Cl)c(OCc3ccc(C(=O)O)cc3)c(Cl)c2)C(=O)N1`, the IC50 is > 50 µM (inactive).

As to `CCOC(=O)c1ccc(N=Cc2c(O)[nH]c(=O)[nH]c2=O)cc1`, the IC50 was > 50 µM (inactive).

On to `CC(=O)N(CN1C(=O)c2ccccc2C1=O)c1ccc(Oc2ccccc2)cc1`, for which the IC50 is > 50 µM (inactive).

With `CCOC(=O)c1ccc(N=Cc2c(O)n(-c3cccc(OC)c3)c(=O)[nH]c2=O)cc1`, the IC50 was > 50 µM (inactive).

Turning to `CC(OC(=O)c1ccc(NC(=O)c2ccc(Br)cc2)cc1)C(=O)c1ccccc1` (stereo unspecified), the IC50 is > 50 µM (inactive).

In the case of `Cc1ccc(-c2nnc3[nH]c(=O)n(C)c(=O)c3n2)cc1`, the IC50 is > 50 µM (inactive).

Turning to `CC(=O)N(CN1C(=O)c2ccccc2C1=O)c1ccc(Br)cc1`, the IC50 is > 50 µM (inactive).

In the case of `O=c1[nH]c2c(c(O)c1-c1ccccc1)c(=O)n(-c1ccccc1)c(=O)n2-c1ccccc1`, the IC50 is > 50 µM (inactive).

With `CCOC(=O)c1ccc(NC(=O)C23CC4CC(CC(C4)C2)C3)cc1`, the IC50 was > 50 µM (inactive).

As to `CC(=O)Oc1c(Cl)c(N2CCOCC2)c(OC(C)=O)c2ccccc12`, the IC50 is > 50 µM (inactive).

As for `CCCCCCC(=O)N(CN1C(=O)c2ccccc2C1=O)c1ccccc1OC`, the IC50 is > 50 µM (inactive).

For the molecule `COc1ccc(-c2nnc3[nH]c(=O)n(C)c(=O)c3n2)cc1OC`, the IC50 was > 50 µM (inactive).

As for `CC(=O)N(CN1C(=O)c2ccccc2C1=O)c1ccc2ccccc2c1`, the IC50 is > 50 µM (inactive).

In the case of `CCOC(=O)c1ccc(N=Cc2c(O)n(CC)c(=O)[nH]c2=O)cc1`, the IC50 is > 50 µM (inactive).

On to `CC(=O)N(CN1C(=O)c2cc(Cl)c(Cl)cc2C1=O)c1ccc(C)c(Cl)c1`, for which the IC50 is > 50 µM (inactive).

For the molecule `CCn1nc(-c2ccc(C)cc2)nc2c(=O)n(C)c(=O)nc1-2`, the IC50 is 0.932 µM.

Take `CCCCCCC(=O)N(CN1C(=O)c2ccccc2C1=O)c1ccc(OCc2ccccc2)cc1`: the IC50 was > 50 µM (inactive).

As to `Cn1nc(-c2ccc(F)cc2)nc2c(=O)n(C)c(=O)nc1-2`, the IC50 is 0.325 µM.

For `O=C(COC(=O)c1ccc(NC(=O)c2ccc([N+](=O)[O-])cc2)cc1)c1ccccc1`, the IC50 is > 50 µM (inactive).

As for `CC(=O)N(CN1C(=O)c2ccccc2C1=O)c1ccccc1C`, the IC50 is > 50 µM (inactive).

For the molecule `CCOC(=O)c1ccc(NC(=O)c2cc3ccccc3c(=O)o2)cc1`, the IC50 was > 50 µM (inactive).

`COc1cc(Br)cc(C=C2C(=O)NC(=O)NC2=O)c1O`: the IC50 was > 50 µM (inactive).

As for `CCCOC(=O)c1ccc(NC(=O)c2ccc(C)c(I)c2)cc1`, the IC50 was > 50 µM (inactive).

Regarding `CCOC(=O)c1ccc(N=Cc2c(O)n(Cc3ccccc3)c(=O)[nH]c2=O)cc1`, the IC50 is > 50 µM (inactive).

For the molecule `Cc1ccc(-c2nc3c(=O)n(C)c(=O)nc-3n(C)n2)cc1`, the IC50 was 1.35 µM.

In the case of `CCOC(=O)c1ccc(NC(=O)c2cncc(Br)c2)cc1`, the IC50 was > 50 µM (inactive).

`CCOC(=O)c1ccc(NC(=O)C2CC(=O)N=C(N)S2)cc1` (stereo unspecified): the IC50 is > 50 µM (inactive).

As for `CCn1nc(-c2ccccc2)nc2c(=O)n(C)c(=O)nc1-2`, the IC50 was 0.524 µM.

For `CC(=O)N(CN1C(=O)c2ccccc2C1=O)c1cc(Br)ccc1C`, the IC50 was > 50 µM (inactive).

Turning to `COc1ccc(N(CN2C(=O)c3ccccc3C2=O)C(C)=O)cc1`, the IC50 was > 50 µM (inactive).

As to `CCOC(=O)c1ccc(N=Cc2c(O)n(Cc3cccs3)c(=O)[nH]c2=O)cc1`, the IC50 was > 50 µM (inactive).

Turning to `Cc1ccccc1-c1nc2c(=O)n(C)c(=O)nc-2n(C)n1`, the IC50 is 1.68 µM and 4.03 µM.

For `CC(=O)N(CN1C(=O)c2ccccc2C1=O)c1cc(C)ccc1C`, the IC50 was > 50 µM (inactive).

In the case of `CCOC(=O)c1ccc(N=Cc2c(O)n(-c3ccc(OCC)cc3)c(=O)[nH]c2=O)cc1`, the IC50 was > 50 µM (inactive).

For `CC(=O)N(/C=C1\Sc2ccccc2C1=O)c1cc(C(F)(F)F)ccc1Cl`, the IC50 is > 50 µM (inactive).

For `COc1cc(C=C2C(=O)NC(=O)NC2=O)ccc1OCc1ccc(Cl)cc1Cl`, the IC50 is > 50 µM (inactive).

As to `CCOC(=O)c1ccc(NC(=O)c2ccc(NC(=O)CC)cc2)cc1`, the IC50 is > 50 µM (inactive).

As to `Cn1c(=O)c2nc(-c3ccccc3)c(=O)[nH]c2n(C)c1=O`, the IC50 is > 50 µM (inactive).

For `CC1CN(c2cc3nccnc3cc2F)CC(C)O1` (stereo unspecified), the IC50 was > 50 µM (inactive).

With `Cn1c(=O)[nH]c2nnc(-c3ccc(C(F)(F)F)cc3)nc2c1=O`, the IC50 is > 50 µM (inactive).

Turning to `CCN(CC)CCOC(=O)c1ccc(N=Cc2c(O)[nH]c(=O)[nH]c2=O)cc1`, the IC50 is > 50 µM (inactive).

As for `CC(=O)N(/N=C1\Sc2ccccc2C1=O)c1ccccc1[N+](=O)[O-]`, the IC50 is 18.7 µM.

In the case of `CCOC(=O)c1ccc(N=Cc2c(O)n(-c3ccc(C)cc3)c(=O)[nH]c2=O)cc1`, the IC50 is > 50 µM (inactive).

Consider `CC(=O)N(/C=C1\Sc2ccccc2C1=O)c1ccc(I)cc1`, for which the IC50 is > 50 µM (inactive).

Turning to `CCOC(=O)c1ccc(NC(=O)C2C3C=CC(C3)C2C(=O)O)cc1` (stereo unspecified), the IC50 is > 50 µM (inactive).

As to `O=C1NC(=O)C(=Cc2ccccc2OCCOc2ccccc2)C(=O)N1`, the IC50 was > 50 µM (inactive).

On to `CCN(CC)CCOC(=O)c1ccc(NC(=O)c2cc(OC)c(OC)cc2OC)cc1`, for which the IC50 is > 50 µM (inactive).

Take `CC(=O)N(CN1C(=O)c2ccccc2C1=O)c1ccc(C)c(Cl)c1`: the IC50 was > 50 µM (inactive).

As to `CC(=O)N(CN1C(=O)c2ccc([N+](=O)[O-])cc2C1=O)c1ccc(Oc2ccccc2)cc1`, the IC50 was > 50 µM (inactive).

For `COC(=O)c1ccc(N(/N=C2\Sc3ccccc3C2=O)C(C)=O)cc1`, the IC50 was 13.9 µM.

As to `COc1ccc(C(=O)COC(=O)c2ccc(NC(=O)c3ccccc3)cc2)cc1`, the IC50 was > 50 µM (inactive).

On to `CCOC(=O)c1ccc(N=Cc2c(O)n(C3CCCCC3)c(=O)n(C3CCCCC3)c2=O)cc1`, for which the IC50 is > 50 µM (inactive).

For the molecule `COc1ccc(-c2nc3c(=O)n(C)c(=O)nc-3n(C)n2)cc1OC`, the IC50 was 0.295 µM.

As for `CCOC(=O)c1ccc(NC(=O)c2cc(=O)[nH]c3ccccc23)cc1`, the IC50 was > 50 µM (inactive).

Regarding `CC(=O)N(CN1C(=O)c2cccc([N+](=O)[O-])c2C1=O)c1ccc2c(c1)oc1ccccc12`, the IC50 is > 50 µM (inactive).

Turning to `Cn1c(O)c(C(=O)c2ccccc2Cl)c(=O)n(C)c1=O`, the IC50 is > 50 µM (inactive).

Regarding `CC(=O)N(/C=C1\Sc2ccccc2C1=O)c1ccc(C)cc1`, the IC50 is > 50 µM (inactive).

Consider `Cn1c(=O)[nH]c2nnc(-c3ccc(F)cc3)nc2c1=O`, for which the IC50 is > 50 µM (inactive).

As for `O=c1cc[nH]c2cc(N3CCOCC3)c(F)cc12`, the IC50 is > 50 µM (inactive).

Regarding `Cc1cc(-n2c(C)cc(C=C3C(=O)NC(=O)NC3=O)c2C)ccc1I`, the IC50 was 45.2 µM.

In the case of `Cc1ccccc1-c1nnc2[nH]c(=O)n(C)c(=O)c2n1`, the IC50 was > 50 µM (inactive).

As for `CC(=O)N(CN1C(=O)c2ccccc2C1=O)c1cccc(C)c1`, the IC50 was > 50 µM (inactive).

With `CCn1nc(-c2cccc(Cl)c2)nc2c(=O)n(C)c(=O)nc1-2`, the IC50 was 0.282 µM and > 50 µM (inactive).

Turning to `CC(=O)N(CN1C(=O)c2ccc(Br)cc2C1=O)c1ccc(Cl)cc1`, the IC50 was > 50 µM (inactive).

`Cn1c(=O)c2nc(-c3ccccc3)c(=O)n(C)c2n(C)c1=O`: the IC50 is > 50 µM (inactive).

As to `CCCOC(=O)c1ccc(NC(=O)c2c(F)c(F)c(F)c(F)c2F)cc1`, the IC50 was > 50 µM (inactive).

As for `CCOC(=O)c1ccc(NC(=O)C2OCCc3ccccc32)cc1` (stereo unspecified), the IC50 is > 50 µM (inactive).

Take `CC(=O)c1ccc(N(CN2C(=O)c3ccc([N+](=O)[O-])cc3C2=O)C(C)=O)cc1`: the IC50 was > 50 µM (inactive).

Turning to `CCn1nc(-c2ccc(OC)cc2)nc2c(=O)n(C)c(=O)nc1-2`, the IC50 is 0.912 µM.

In the case of `CC(=O)Oc1ccccc1N(/C=C1/Sc2ccccc2C1=O)C(C)=O`, the IC50 was > 50 µM (inactive).

On to `CCCCOC(=O)c1ccc(NC(=O)c2cc(OCC)c(OCC)c(OCC)c2)cc1`, for which the IC50 was > 50 µM (inactive).

On to `Cn1nc(-c2ccc(C(F)(F)F)cc2)nc2c(=O)n(C)c(=O)nc1-2`, for which the IC50 was 0.21 µM and 0.851 µM.

Regarding `CCOC(=O)c1ccc(N=Cc2c(O)n(Cc3ccccc3Cl)c(=O)[nH]c2=O)cc1`, the IC50 is > 50 µM (inactive).

In the case of `CC(=O)N(/N=C1\Sc2ccccc2C1=O)c1ccc(Br)cc1`, the IC50 was 45.8 µM.

Source of the values: PubChem BioAssay AID1083 (University of Pittsburgh Molecular Library Screening Center, 2008).
